Assay [1] concerns Escherichia coli. Kind of assay: Inhibition of Escherichia coli DdlB at 500 uM after 20 mins by malachite green staining-based colorimetric assay.
Assay [2] in a line: Competitive inhibition of Escherichia coli DdlB after 20 mins by malachite green staining-based colorimetric assay in presence of ATP.
A short description of assay [3]: Inhibition of Escherichia coli DdlB after 20 mins by malachite green staining-based colorimetric assay.
In assay [4] the test system is Escherichia coli. The experiment in a line: Inhibition of Escherichia coli DdlB at 250 uM after 20 mins by malachite green staining-based colorimetric assay.

Each structure is given as a SMILES string.

The term inhibition denotes how much of the control response was suppressed. Higher therefore signals a response far below the control. As a reminder, the Ki is the dissociation constant of the complex between target and ligand, obtained from inhibition or displacement. As a reminder, the IC50 is the concentration needed to halve the response being measured.

On to `N/C(=N\OC(=O)Nc1cccc(Cl)c1)c1ccno1`, for which, in the assay with Escherichia coli [1], the inhibition was 48%. For the same molecule, the Ki in assay [2] was determined as 326 µM. Also, the IC50 in assay [3] (read-out: IC50) worked out at 378 µM.
On to `COc1ccc2c(C)nc(Nc3nc(O)cc(O)n3)nc2c1`, for which the IC50 entry in assay [3] was “ND(Insoluble)”. The molecule also showed an inhibition with Escherichia coli [4] of 70%.
In the assay with Escherichia coli [1], `Cc1cc(C(=N)NOC(=O)Nc2ccc(Cl)cc2)no1` registered an inhibition of 61%. For the same molecule, the 50% inhibitory concentration (IC50) in assay [3] (read-out: IC50) is 656 µM.
`O=C(N/N=C/c1cc(=O)[nH]c(O)n1)c1ccncc1` returned an inhibition in the assay with Escherichia coli [1] of 62%. In addition, the IC50 result in assay [3] is on record as “ND(Insoluble)”.
Take `O=C1NC(=O)C(=C(O)Nc2ccccc2)C(=O)N1`: in the assay with Escherichia coli [1], the inhibition is 63%. The IC50 in assay [3] (read-out: IC50) worked out at 611 µM.
In the assay on Escherichia coli [1], `N/C(=N\OC(=O)Nc1ccc(Cl)cc1)c1cnccn1` showed an inhibition of 77%. Besides, the IC50 result in assay [3] is “ND(Insoluble)”.
The matching figures for `N/C(=N/OC(=O)c1ccc2nsnc2c1)c1ncon1`: 78% and “ND(Insoluble)”.

The values are drawn from ChEMBL document CHEMBL2163324, “Function of the D-alanine:D-alanine ligase lid loop: a molecular modeling and bioactivity study” (J Med Chem, 2012).
